Results reported in patent publication US20250346600A1, “TRICYCLIC DERIVATIVES AND RELATED USES” (MOMA Therapeutics, Inc., priority 2023, published 2025).
Where two headings read alike, the source gives them in different places.

Columns and labels:
[1] = target: T1, Full length WRN protein (aa 2-1432) (Homo sapiens (Human), UniProt Q14191); assay: WRN ATPase ADP-Glo biochemical assay, Assay Format A (10 μM ATP); conditions: 0.25 nM WRN, 100 nM C6.18 ssDNA, 30 min preincubation, read-out: ATPase ADPGlo AC50 (uM)- Assay Format A
Summary of the method: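 ADP-Glo luminescence measured hydrolysis of ATP by purified, baculovirus-expressed N-terminally tagged full-length WRN. Enzyme (0.5 nM) was preincubated 30 min with compound, then 200 nM ssDNA C6.18 plus 20 μM ATP were added (pre-mix levels) for 30 min at RT. IC50s come from four-parameter fits, geometric mean of at least two trials.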

[2] = target: T1, Full length WRN protein (aa 2-1432); assay: WRN ATPase ADP-Glo biochemical assay, Assay Format B (100 μM ATP); conditions: 0.25 nM WRN, 100 nM C6.18 ssDNA, 60 min preincubation, read-out: ATPase ADPGlo AC50 (uM)- Assay Format B
HCT116 cells = assay: HCT116 (MSI) 7 day viability, CellTiter Glo; format: cell-based; conditions: 7 days, read-out: HCT116 (MSI) Viability 7 Day Abs AC50
Summary of the method: (§1)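 10 mM DMSO stocks serially diluted 3-fold, 10 steps; cells added (HCT116 50/well, HT29 500/well); 7 d, 37 °C, 5% CO2; CellTiter Glo 20 min RT; luminescence.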

HT29 cells = assay: HT29 (MSS) 7 day viability, CellTiter Glo; format: cell-based; conditions: 7 days, read-out: HT29 (MSS) Viability 7 Day CTGAbs AC50
Summary of the method: as §1

T1 sequence (Q14191 2-1432): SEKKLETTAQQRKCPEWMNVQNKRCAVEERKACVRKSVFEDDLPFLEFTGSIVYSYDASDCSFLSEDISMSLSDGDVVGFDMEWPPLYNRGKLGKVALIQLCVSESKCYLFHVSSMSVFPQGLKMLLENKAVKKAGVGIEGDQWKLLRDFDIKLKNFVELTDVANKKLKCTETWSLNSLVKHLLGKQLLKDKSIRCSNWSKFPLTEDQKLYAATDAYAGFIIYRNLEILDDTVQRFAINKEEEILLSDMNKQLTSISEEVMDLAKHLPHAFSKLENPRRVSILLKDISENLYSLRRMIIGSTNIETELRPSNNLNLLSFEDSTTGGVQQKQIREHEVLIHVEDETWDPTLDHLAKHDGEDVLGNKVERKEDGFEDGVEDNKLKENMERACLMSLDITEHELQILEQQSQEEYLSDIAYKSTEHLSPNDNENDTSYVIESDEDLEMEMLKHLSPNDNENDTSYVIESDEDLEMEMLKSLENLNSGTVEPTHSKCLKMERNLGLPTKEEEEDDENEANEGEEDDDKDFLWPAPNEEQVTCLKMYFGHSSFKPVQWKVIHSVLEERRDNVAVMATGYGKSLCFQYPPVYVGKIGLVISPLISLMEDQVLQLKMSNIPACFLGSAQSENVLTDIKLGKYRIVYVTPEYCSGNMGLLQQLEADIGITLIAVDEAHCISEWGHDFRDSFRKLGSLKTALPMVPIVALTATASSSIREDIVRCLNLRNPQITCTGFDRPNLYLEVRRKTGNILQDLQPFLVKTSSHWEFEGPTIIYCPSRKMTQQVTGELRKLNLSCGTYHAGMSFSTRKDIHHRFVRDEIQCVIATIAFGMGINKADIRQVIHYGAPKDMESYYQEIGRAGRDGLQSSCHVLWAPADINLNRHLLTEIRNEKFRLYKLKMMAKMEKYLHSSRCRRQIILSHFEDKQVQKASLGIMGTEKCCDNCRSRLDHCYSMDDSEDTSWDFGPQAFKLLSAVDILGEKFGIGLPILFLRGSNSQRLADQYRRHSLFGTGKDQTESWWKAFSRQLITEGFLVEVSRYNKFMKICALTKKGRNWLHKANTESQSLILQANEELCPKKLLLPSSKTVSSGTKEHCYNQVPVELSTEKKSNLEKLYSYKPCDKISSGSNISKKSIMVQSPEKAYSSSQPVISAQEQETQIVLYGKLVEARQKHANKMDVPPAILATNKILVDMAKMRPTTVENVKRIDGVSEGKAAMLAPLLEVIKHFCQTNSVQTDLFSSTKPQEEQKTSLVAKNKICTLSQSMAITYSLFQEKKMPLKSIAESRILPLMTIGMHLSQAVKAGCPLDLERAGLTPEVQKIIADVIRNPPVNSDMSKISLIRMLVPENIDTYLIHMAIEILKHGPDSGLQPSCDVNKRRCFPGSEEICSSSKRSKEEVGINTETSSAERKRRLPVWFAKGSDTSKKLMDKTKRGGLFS

SMILES | AC50 [1] [µM] | AC50 [2] [µM] | AC50 (HCT116 cells; Homo sapiens, HCT-116, 168 h) [nM] | AC50 (HT29 cells; Homo sapiens, HT-29, 168 h) [nM] | AC50 (HCT116 cells) [nM] | AC50 (HT29 cells) [nM]
C=CC(=O)N1CCc2nn(-c3ccc(C4CCC4)cc3O)c3c2C(C1)N(C(=O)c1ccc(SC(F)(F)F)nc1)CC3 (stereo not drawn) [Compound 157, 1-(2-(4-cyclobutyl-2-hydroxyphenyl)-5-(6-((trifluoromethyl)thio)nicotinoyl)-2,3,4,5,5a,6,8,9-octahydro-7H-1,2,5,7-tetraazabenzo[cd]azulen-7-yl)prop-2-en-1-one] | < 0.0015 | 0.005 to 0.015 | 1 to 100 | > 3000 | – | –
C=CC(=O)N1CCc2nn(-c3ccc(C4CCC4)cc3)c3c2C(C1)N(C(=O)c1ccc(Br)c2[nH]nc(N)c12)CC3 (stereo not drawn) [Compound 158, 1-(5-(3-amino-7-bromo-1H-indazole-4-carbonyl)-2-(4-cyclobutylphenyl)-2,3,4,5,5a,6,8,9-octahydro-7H-1,2,5,7-tetraazabenzo[cd]azulen-7-yl)prop-2-en-1-one] | < 0.0015 | 0.0015 to 0.005 | 1 to 100 | > 3000 | – | –
C=CC(=O)N1CCc2nn(-c3ccc(C4CCC4)cc3O)c3c2C(C1)N(C(=O)c1ncc(C(F)(F)F)c(N)n1)CC3 (stereo not drawn) [Compound 159, 1-(5-(4-amino-5-(trifluoromethyl)pyrimidine-2-carbonyl)-2-(4-cyclobutyl-2-hydroxyphenyl)-2,3,4,5,5a,6,8,9-octahydro-7H-1,2,5,7-tetraazabenzo[cd]azulen-7-yl)prop-2-en-1-one] | 0.0015 to 0.005 | 0.015 to 0.055 | 1 to 100 | > 3000 | – | –
C=CC(=O)N1CC(O)c2nn(-c3ccc(C4CCC4)cc3)c3c2C(C1)N(C(=O)c1ccc(Br)c2[nH]c(C(F)F)nc12)CC3 (stereo not drawn) [Compound 160, 1-(5-(7-bromo-2-(difluoromethyl)-1H-benzo[d]imidazole-4-carbonyl)-2-(4-cyclobutylphenyl)-9-hydroxy-2,3,4,5,5a,6,8,9-octahydro-7H-1,2,5,7-tetraazabenzo[cd]azulen-7-yl)prop-2-en-1-one] | < 0.0015 | 0.0015 to 0.005 | 1 to 100 | > 3000 | – | –
C=CC(=O)N1CCc2nn(-c3ccc(C4CCC4)cc3)c3c2C(C1)N(C(=O)c1cnc(C(F)(F)F)nc1N)CC3 (stereo not drawn) [Compound 161, 1-(5-(4-amino-2-(trifluoromethyl)pyrimidine-5-carbonyl)-2-(4-cyclobutylphenyl)-2,3,4,5,5a,6,8,9-octahydro-7H-1,2,5,7-tetraazabenzo[cd]azulen-7-yl)prop-2-en-1-one] | < 0.0015 | 0.005 to 0.015 | 1 to 100 | > 3000 | – | –
C=CC(=O)N1CCc2nn(-c3ccc(C4CC4)cc3)c3c2C(C1)N(C(=O)c1cnc(Cl)cc1N)CC3 (stereo not drawn) [Compound 162, 1-(5-(4-amino-6-chloronicotinoyl)-2-(4-cyclopropylphenyl)-2,3,4,5,5a,6,8,9-octahydro-7H-1,2,5,7-tetraazabenzo[cd]azulen-7-yl)prop-2-en-1-one] | < 0.0015 | 0.005 to 0.015 | – | – | 1 to 100 | > 3000
C=CC(=O)N1CCc2nn(-c3ccc(C4CC4)cc3O)c3c2C(C1)N(C(=O)c1cnc(C(F)(F)F)cc1N)CC3 (stereo not drawn) [Compound 163, 1-(5-(4-amino-6-(trifluoromethyl)nicotinoyl)-2-(4-cyclopropyl-2-hydroxyphenyl)-2,3,4,5,5a,6,8,9-octahydro-7H-1,2,5,7-tetraazabenzo[cd]azulen-7-yl)prop-2-en-1-one] | < 0.0015 | 0.005 to 0.015 | 1 to 100 | > 3000 | – | –
C=CC(=O)N1CCc2nn(-c3ccc(C4CC4)cc3)c3c2C(C1)N(C(=O)c1cnc(Br)cc1N)CC3 (stereo not drawn) [Compound 166, 1-(5-(4-amino-6-bromonicotinoyl)-2-(4-cyclopropylphenyl)-2,3,4,5,5a,6,8,9-octahydro-7H-1,2,5,7-tetraazabenzo[cd]azulen-7-yl)prop-2-en-1-one] | < 0.0015 | 0.005 to 0.015 | 1 to 100 | > 3000 | – | –
C=CC(=O)N1CCc2nn(-c3ccc(C4CC4)cc3)c3c2C(C1)N(C(=O)c1ccc(Cl)nc1N)CC3 (stereo not drawn) [Compound 167, 1-(5-(2-amino-6-chloronicotinoyl)-2-(4-cyclopropylphenyl)-2,3,4,5,5a,6,8,9-octahydro-7H-1,2,5,7-tetraazabenzo[cd]azulen-7-yl)prop-2-en-1-one] | < 0.0015 | 0.015 to 0.055 | 1 to 100 | > 3000 | – | –
C=CC(=O)N1CCc2nn(-c3ccc(C(C)C)cc3O)c3c2C(C1)N(C(=O)c1ccc(Br)c2[nH]c(C(F)F)nc12)CC3 (stereo not drawn) [Compound 174, 1-(5-(7-bromo-2-(difluoromethyl)-1H-benzo[d]imidazole-4-carbonyl)-2-(2-hydroxy-4-isopropylphenyl)-2,3,4,5,5a,6,8,9-octahydro-7H-1,2,5,7-tetraazabenzo[cd]azulen-7-yl)prop-2-en-1-one] | < 0.0015 | 0.0015 to 0.005 | 1 to 100 | > 3000 | – | –
C=CC(=O)N1CCc2nn(-c3ccc(C4CC4)cc3)c3c2C(C1)N(C(=O)c1cnc(C(F)(F)F)c(F)c1N)CC3 (stereo not drawn) [Compound 178, 1-(5-(4-amino-5-fluoro-6-(trifluoromethyl)nicotinoyl)-2-(4-cyclopropylphenyl)-2,3,4,5,5a,6,8,9-octahydro-7H-1,2,5,7-tetraazabenzo[cd]azulen-7-yl)prop-2-en-1-one] | < 0.0015 | 0.005 to 0.015 | 1 to 100 | > 3000 | – | –
C=CC(=O)N1CCc2nn(-c3ccc(C4CC4)cc3)c3c2C(C1)N(C(=O)c1cnc(Cl)c(F)c1N)CC3 (stereo not drawn) [Compound 181, 1-(5-(4-amino-6-chloro-5-fluoronicotinoyl)-2-(4-cyclopropylphenyl)-2,3,4,5,5a,6,8,9-octahydro-7H-1,2,5,7-tetraazabenzo[cd]azulen-7-yl)prop-2-en-1-one] | < 0.0015 | 0.0015 to 0.005 | 1 to 100 | > 3000 | – | –
C=CC(=O)N1CCc2nn(-c3ccc(C4CC4)cc3)c3c2C(C1)N(C(=O)c1cnc(Br)c(F)c1N)CC3 (stereo not drawn) [Compound 182, 1-(5-(4-amino-6-bromo-5-fluoronicotinoyl)-2-(4-cyclopropylphenyl)-2,3,4,5,5a,6,8,9-octahydro-7H-1,2,5,7-tetraazabenzo[cd]azulen-7-yl)prop-2-en-1-one] | < 0.0015 | 0.0015 to 0.005 | 1 to 100 | > 3000 | – | –
C=CC(=O)N1CCc2nn(-c3ccc(C4CC4)cc3)c3c2C(C1)N(C(=O)c1cnc(C(C)(F)F)cc1N)CC3 (stereo not drawn) [Compound 183, 1-(5-(4-amino-6-(1,1-difluoroethyl)nicotinoyl)-2-(4-cyclopropylphenyl)-2,3,4,5,5a,6,8,9-octahydro-7H-1,2,5,7-tetraazabenzo[cd]azulen-7-yl)prop-2-en-1-one] | < 0.0015 | 0.0015 to 0.005 | 1 to 100 | > 3000 | – | –
C=CC(=O)N1CC(O)c2nn(-c3ccc(C4CC4)cc3)c3c2C(C1)N(C(=O)c1cnc(C(F)(F)F)cc1N)CC3 (stereo not drawn) [Compound 184, 1-(5-(4-amino-6-(trifluoromethyl)nicotinoyl)-2-(4-cyclopropylphenyl)-9-hydroxy-2,3,4,5,5a,6,8,9-octahydro-7H-1,2,5,7-tetraazabenzo[cd]azulen-7-yl)prop-2-en-1-one] | < 0.0015 | 0.005 to 0.015 | 1 to 100 | > 3000 | – | –
